Some test systems named below: A549; HCT-15; HOP-62; KM12; M14; NCI-H226; OVCAR-3; OVCAR-4; OVCAR-8; SF-539; SK-MEL-2; SN12C; SR; U-251; UACC-257; UACC-62; UO-31; RPMI-8226.
Assay in all cases: growth of human tumour cells (NCI), 48 h

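96-well plates; 48 h exposure; 5 concentrations. Endpoints by linear interpolation between flanking doses. Not reached: highest tested concentration assigned. GI50 = concentration required for 50% inhibition of growth.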 Active and inactive are the calls of the source. Cut-off read from the data, not from the text of the source: active = GI50 up to about 1.1 µM and inactive = higher.

`CC(=O)NNc1nc(C)c(C(=O)/C=C/c2ccc(/C=C/C(=O)c3sc(NNC(C)=O)nc3C)cc2)s1`: the GI50 in the assay with A549 was > 100 µM (inactive); with HCT-15, above 100 µM; with HOP-62, > 100 µM (inactive); in the assay on KM12 it was > 100 µM (inactive); in the assay on M14, 43.2 µM (inactive); in the assay with NCI-H226, > 100 µM (inactive). Besides, the GI50 in the assay on OVCAR-3, with OVCAR-4, with OVCAR-8, with SF-539, with SK-MEL-2 and with SN12C was > 100 µM (inactive) each time. The GI50 in the assay on SR, in the assay with U-251, in the assay on UACC-257, in the assay with UACC-62 and in the assay with UO-31 was > 100 µM (inactive) each time.
As to `COC(=O)C(Br)C1CCc2ccccc21` (configuration not stated), the GI50 in the assay on A549 is > 100 µM (inactive); with HCT-15, above 100 µM; with HOP-62, > 100 µM (inactive); in the assay on M14 it was > 100 µM (inactive); in the assay on NCI-H226, 46.3 µM (inactive); in the assay on OVCAR-3, 63.1 µM (inactive). Also, the GI50 was 53.2 µM (inactive) in the assay with OVCAR-4; > 100 µM (inactive) in the assay on OVCAR-8; 71.9 µM (inactive) with RPMI-8226; > 100 µM (inactive) in the assay on SN12C; 42.8 µM (inactive) in the assay with SR; > 100 µM (inactive) in the assay with U-251. Besides, the GI50 in the assay with UACC-257, with UACC-62 and in the assay with UO-31 was > 100 µM (inactive) each time.
Take `CC/C=C\C/C=C\C1CC(=O)NCCCNCCCCN1` (configuration not stated): the GI50 with A549 is > 100 µM (inactive); in the assay on HOP-62, > 100 µM (inactive); in the assay on KM12, > 100 µM (inactive); in the assay on M14, 48 µM (inactive); in the assay on NCI-H226 it was 59.7 µM (inactive); in the assay on OVCAR-4 it was > 100 µM (inactive). In addition, the GI50 was > 100 µM (inactive) in the assay on OVCAR-8; > 100 µM (inactive) in the assay on SF-539; 68.9 µM (inactive) in the assay on SK-MEL-2; > 100 µM (inactive) with SN12C; > 100 µM (inactive) with SR; > 100 µM (inactive) in the assay on U-251. The GI50 in the assay on UACC-257 and with UO-31 was > 100 µM (inactive) throughout.
Consider `Clc1ccc(OCc2nnc3n2N=C(c2ccccc2)CS3)c(Cl)c1`, for which the GI50 is 6.5 µM (inactive) with A549; above 100 µM with HCT-15; > 10 µM (inactive) with HOP-62; > 100 µM (inactive) in the assay on KM12; > 10 µM (inactive) in the assay with M14; 9.84 µM (inactive) with NCI-H226. Moreover, the GI50 is > 10 µM (inactive) with OVCAR-3; 50.9 µM (inactive) in the assay with OVCAR-4; 7.33 µM (inactive) in the assay with OVCAR-8; 12.6 µM (inactive) with SF-539; > 100 µM (inactive) in the assay with SK-MEL-2; 4.73 µM (inactive) in the assay with SR. Moreover, the GI50 with U-251 is 4.81 µM (inactive); with UACC-257 it was 56.2 µM (inactive); in the assay on UACC-62 it was 6.58 µM (inactive); with UO-31 it was 2.14 µM (inactive).
`COc1ccc(N2C(=O)C3c4[nH]c5ccccc5c4C4CC(C)(C)CC(C)(C)C4C3C2=O)cc1` (configuration not stated): the GI50 in the assay on A549 was 13.2 µM (inactive); with HCT-15, 30.2 µM; in the assay with HOP-62, 16.7 µM (inactive); in the assay on M14, 14.3 µM (inactive); in the assay with NCI-H226 it was 14 µM (inactive); with OVCAR-4 it was 10.2 µM (inactive). In addition, the GI50 in the assay with OVCAR-8 is 3.2 µM (inactive); in the assay with RPMI-8226 it was 31.8 µM (inactive); in the assay with SF-539, 12.6 µM (inactive); with SN12C, 16 µM (inactive); in the assay on SR, 10.3 µM (inactive); with U-251, 16.8 µM (inactive). The GI50 was 19.4 µM (inactive) in the assay on UACC-257, 14.4 µM (inactive) in the assay with UACC-62 and 26 µM (inactive) with UO-31.
